Reference: patent EP1379634B1 (THE UNIVERSITY OF GEORGIA RESEARCH FOUNDATION, INC., priority 2001, dated 2002)
Starred links: 1 amine or outer side, 2 acyl side, 3 side chain; linkers in the order of their positions; H or OH if unused. Residues, ends and D or L forms follow the SMILES beside them. *: point of attachment. AFC = O=c1cc(C(F)(F)F)c2ccc(N*)cc2o1; Suc = O=C(CCC(=O)[*:2])[*:1]

System: T. solium purified cysteine protease
Test: Human IgG degradation, western blot (Step IV)
Format: biochemical, Taenia solium
Conditions: overnight, 37°C, 18 hrs
Description: To conduct this assessment, a western blot was performed. IgG digestion was detected by incubating 20 ul of T. solium purified enzyme or T. […] extract with 1 ug of human IgG (Sigma, St. Louis) in a final volume of 100 ul of assay buffer. Exogenous thiol activation was assessed by incubating the assay in the presence or absence of cysteine. The catalytic class of the IgG protease was determined by pre-incubating the following proteinase inhibitors at their active concentrations, with the enzyme: E 64 (10^-6 M , cysteine proteinases), phenylmethylsulfonyl fluoride (PMSF) (10^-3 M, serine proteinases), pepstatin A (10^-6M, aspartic proteinases), and 1,10 phenanthroline (10^-3 M, metalloproteinases), and the vehicle, Mu-Leu-Tyr-AFC (10^-3 M). After addition of IgG, the assay was incubated overnight (37°C, 18 hrs). Subsequently, 100 ul of the mixture was boiled in sodium dodecyl sulfate polyacrylamide gel electrophoresis (SDS-PAGE) sample buffer with 2% 2-mercaptoethanol, separated by 12.5% SDS-PAGE, and blotted onto a polyvinylidene difluoride membrane. Tris buffered saline containing 0.1 % bovine serum albumin and 0.05% Tween 20 (TBS-BSA) was used to block nonspecific binding. […]

Structure (SMILES): CC(C)CC(NC(=O)C1OC1C(=O)O)C(=O)NCCCCNC(=N)N (centres unmarked) [E64, reference compound]
- inhibition of cleavage of human IgG: Inhibition was noted

Structure (SMILES): CC(C)C[C@H](NC(=O)CCC(=O)O)C(=O)N[C@@H](Cc1ccc(O)cc1)C(=O)Nc1ccc2c(C(F)(F)F)cc(=O)oc2c1 [suc-Leu-Tyr-AFC] (Suc-Leu-Tyr-{AFC})
- inhibition of cleavage of human IgG: ability to inhibit
